Reference: patent US20030171377A1, “Antidiabetic agents” (priority 2001, published 2003)
Counter-ions that a name gives are not always drawn.

Key:
[1] = system: endogenous nuclear receptors in CV-1 cells; experiment: CV-1 Native Receptors Transcription Assay (MKNRCV1), Test C; type: cell-based, African green monkey; settings: for MKNRCV1 % BRL @ 25 μM: percent activity of BRL 49653; for EC50: Chlorocebus sabaeus, CV-1 cells, 48 hours, unit inferred
[2] = system: CV-1 cells (FATP promoter luciferase reporter, 300 nM BRL); experiment: ANTCV1 Antagonist Transcription Assay, Test B; type: cell-based, African green monkey; settings: Chlorocebus sabaeus, 25 μM test compound with 300 nM BRL, 48 hrs, % BRL inhibition, read-out: ANTCV1 INHIB @ 25 μM
3T3-L1 preadipocytes = experiment: 3T3-L1 Adipocyte Differentiation Assay (ADPDIFF), Test A; type: cell-based; settings: BODIPY lipid fluorescence, reported as % of BRL 49653 at 5 μM
Experimental: Cells are replenished with FBS containing media on day 5 of post-drug treatment and incubated for additional 4-6 days. Cells are stained with BODIPY a fluorescent lipophilic stain to quantitate the lipid content of the cells. The assay is optimized for a 96-well plate format. Approximately after 10 days of post-drug treatment, cells are fixed in 3% formalin solution for 15 min followed by staining with BODIPY (80 μg/ml) for 20 min at room temperature. The plate is then put through the CYTOFLUOR instrument to measure the fluorescence of BODIPY (excitation=485/20; emission=530/25).

[3] = Blood Glucose Measurement (Glucose Δ), Test D; type: in vivo, mice; set-up: key to Glucose Δ: change in blood glucose, mg/dL; settings: for Glucose Δ: 4 hours post dose, 4 hour fasted animals, tail vein whole blood; for % BRL (in vivo, beside Glucose Δ): glucose change relative to BRL
Experimental: Test D—Blood Glucose Measurement (Glucose Δ) Glucose is obtained 4 hours post dose via tail vein stick (5 μl whole blood) in awake, 4 hour fasted animals. Blood is drawn by capillary action into a glucose cuvette and read in a HemoCue Glucose Analyzer (Ryan Diagnostics). Blood is diluted 1:2 with saline if glucose levels are greater than 400 mg/dl (meter high range) and results multiplied by two.

Compound | melting point [°C] | other results
Cc1oc(-c2ccccc2)nc1CCN(Cc1ccccc1)Cc1ccc(C[C@@H](C(=O)O)n2cccc2)cc1 (as salt: salt) | 110 to 113 | –
Cc1oc(-c2ccccc2)nc1CCOc1ccc(C[C@@H](C(=O)O)c2cccs2)cc1 (stereo in doubt) (hydrate or solvate) [Example 32, 3-{4-[2-(5-Methyl-2-phenyl-oxazol-4-yl)-ethoxy]-phenyl}-2-thiophen-2-yl-propionic acid] | 146 to 147 | –
O=C(O)[C@H](Cc1ccc(OCCn2c(-c3ccccc3)nc3ccccc32)cc1)n1cccc1 (stereo in doubt) [Example 23, 3-{4-[2-(2-Phenyl-benzimidazol-1-yl)-ethoxy]-phenyl}-2-pyrrol-1-yl-propionic acid] | 210 to 212 | –
Cc1oc(-c2ccccc2)nc1CCC(=O)c1ccc(C[C@@H](C(=O)O)n2cccc2)cc1 (stereo in doubt) [Example 31, 3-{4-[3-(5-Methyl-2-phenyl-oxazol-4-yl)-propionyl]-phenyl}-2-pyrrol-1-yl-propionic acid] | 90 to 92 | –
Cc1oc(-c2ccccc2)nc1CCOc1ccc(C[C@@](C)(C(=O)O)n2ccc(Br)c2)cc1 (stereo in doubt) [Example 58, 2-(3-Bromo-pyrrol-1-yl)-2-methyl-3-{4-[2-(5-methyl-2-phenyl-oxazol-4-yl)-ethoxy]-phenyl}-propionic acid] | 158 to 159 | –
Cc1oc(-c2ccccc2)nc1CCOc1ccc(C[C@@H](C(=O)O)n2ccc(-c3ccccc3)c2)cc1 [Example 4, (S)-3-{4-[2-(5-Methyl-2-phenyl-oxazol-4-yl)-ethoxy]-phenyl}-2-(3-phenyl-pyrrol-1-yl)-propionic acid] | 146 to 147 | –
Cc1oc(-c2ccccc2)nc1CCOc1ccc(C[C@@H](C(=O)O)n2cccc2C(=O)C(F)(F)F)cc1 [Example 12, (S)-3-{4-[2-(5-Methyl-2-phenyl-oxazol-4-yl)-ethoxy]-phenyl}-2-[2-(2,2,2-trifluoro-acetyl)-pyrrol-1-yl]-propionic acid] | 187 to 188 | –
CC(=O)c1cccn1[C@@H](Cc1ccc(OCCc2nc(-c3ccccc3)oc2C)cc1)C(=O)O [Example 14, (S)-2-(2-Acetyl-pyrrol-1-yl)-3-{4-[2-(5-methyl-2-phenyl-oxazol-4-yl)-ethoxy]-phenyl}-propionic acid] | 110 to 112 | –
Cc1sc(-c2ccccc2)nc1CCOc1ccc(C[C@@H](C(=O)O)n2cccc2)cc1 [Example 18, (S)-3-{4-[2-(5-Methyl-2-phenyl-thiazol-4-yl)-ethoxy]-phenyl}-2-pyrrol-1-yl-propionic acid] | 157 to 158 | –
Cc1oc(-c2ccccc2)nc1CCOc1ccc(C[C@@H](C(=O)O)c2ccccc2)cc1 [Example 36, 3-{4-[2-(5-Methyl-2-phenyl-oxazol-4-yl)-ethoxy]-phenyl}-2-phenyl-propionic acid (R)] | 124.1 to 125 | –
COc1ccc(C(Cc2ccc(OCCc3nc(-c4ccccc4)oc3C)cc2)C(=O)O)cc1 (stereo not shown) [Example 37, 2-(4-Methoxy-phenyl)-3-{4-[2-(5-methyl-2-phenyl-oxazol-4-yl)-ethoxy]-phenyl}-propionic acid] | 114.7 to 116.6 | –
Cc1oc(-c2ccccc2)nc1CCOc1ccc(CC(C)(C(=O)O)c2ccccc2)cc1 (stereo not shown) [Example 39, 2-Methyl-3-{4-[2-(5-methyl-2-phenyl-oxazol-4-yl)-ethoxy]-phenyl}-2-phenyl-propionic acid] | 178 to 179 | –
Cc1oc(-c2ccccc2)nc1CCOc1ccc(CC(C)(C)C(=O)O)cc1 [Example 40, 2,2-Dimethyl-3-{4-[2-(5-methyl-2-phenyl-oxazol-4-yl)-ethoxy]-phenyl}-propionic acid] | 133 to 134 | –
Cc1oc(-c2ccccc2)nc1CCOc1ccc(CC(F)(C(=O)O)c2ccccc2)cc1 (stereo not shown) [Example 41, 2-Fluoro-3-{4-[2-(5-methyl-2-phenyl-oxazol-4-yl)-ethoxy]-phenyl}-2-phenyl-propionic acid] | 163 to 165 | –
CCc1nnc(C(Cc2ccc(OCCc3nc(-c4ccccc4)oc3C)cc2)c2ccccc2)o1 (stereo not shown) [Example 43, 2-Ethyl-5-(2-{4-[2-(5-methyl-2-phenyl-oxazol-4-yl)-ethoxy]-phenyl}-1-phenyl-ethyl)-1,3,4-oxadiazole] | 110 | –
Cc1oc(-c2ccccc2)nc1CCC(=O)c1ccc(CC(C(=O)O)n2cccc2)cc1 (stereo not shown) [Example 44, 3-{4-[3-(5-Methyl-2-phenyl-oxazol-4-yl)-propionyl]-phenyl}-2-pyrrol-1-yl-propionic acid] | 90 to 92 | –

Compound | melting point [°C] | other results
Cc1oc(-c2ccccc2)nc1CCOc1ccc(C[C@@](C)(C(=O)O)n2cccc2)cc1 [Example 52] | 149.5 to 150.5 | –
CC(C(=O)O)n1ccc2c(OCc3ccccc3)cccc21 (stereo not shown) [Example 60, 2-(4-Benzyloxy-indol-1-yl)-propionic acid] | 143 to 146 | –
Cc1oc(-c2ccccc2)nc1CCOc1cccc2c1ccn2C(C)C(=O)O (stereo not shown) [Example 65, 2-(4-[2-(5-Methyl-2-phenyl-oxazol-4-yl)-ethoxy]-indol-1-yl)-propionic acid] | 157 to 159 | –
Cc1oc(-c2ccccc2)nc1CCOc1ccc(CC(C)(C(=O)O)c2cccs2)cc1 (stereo not shown) [Example 73, 2-Methyl-3-{4-[2-(5-methyl-2-phenyl-oxazol-4-yl)-ethoxy]-phenyl}-2-thiophen-2-yl-propionic acid] | 165 to 166 | –
Cc1oc(-c2ccccc2)nc1CCOc1ccc(CC(C)(C(=O)O)c2ccsc2)cc1 (stereo not shown) [Example 74, 2-Methyl-3-{4-[2-(5-methyl-2-phenyl-oxazol-4-yl)-ethoxy]-phenyl}-2-thiophen-3-yl-propionic acid] | 165 to 166 | –
Cc1oc(-c2ccccc2)nc1CCOc1ccc(CC(C)(C)C(=O)NS(C)(=O)=O)cc1 [Example 75, N-(2,2-Dimethyl-3-{4-[2-(5-methyl-2-phenyl-oxazol-4-yl)-ethoxy]-phenyl}-propionyl)-methanesulfonamide] | 112 to 113 | –
Cc1oc(-c2ccccc2)nc1CCOc1ccc(CC(F)(C(=O)NS(C)(=O)=O)c2ccccc2)cc1 (stereo not shown) [Example 76, N-(2-Fluoro-3-{4-[2-(5-methyl-2-phenyl-oxazol-4-yl)-ethoxy]-phenyl}-2-phenyl-propionyl)-methanesulfonamide] | 118 to 120 | –
Cc1oc(-c2ccccc2)nc1CCOc1cc(CC(C(=O)O)n2cccc2)on1 (stereo not shown) [Example 77, 3-{3-[2-(5-Methyl-2-phenyl-oxazol-4-yl)-ethoxy]-isoxazol-5-yl}-2-pyrrol-1-yl-propionic acid] | 143 to 144 | –
Cc1oc(-c2ccccc2)nc1CCOc1ccc(CC(C(=O)O)c2nc(-c3ccccc3)oc2C)cc1 (stereo not shown) [Example 79, 2-(5-Methyl-2-phenyl-oxazol-4-yl)-3-{4-[2-(5-methyl-2-phenyl-oxazol-4-yl)-ethoxy]-phenyl}-propionic acid] | 120 | –
Cc1oc(-c2ccccc2)nc1CCCc1ccc(CC(C(=O)O)n2cncn2)cc1 (stereo not shown) [Example 94] | 169 to 171 | –
Cc1cc(C(Cc2ccc(CCCc3nc(-c4ccccc4)oc3C)cc2)C(=O)O)on1 (stereo not shown) [Example 104, 2-(3-Methyl-isoxazol-5-yl)-3-{4-[3-(5-methyl-2-phenyl-oxazol-4-yl)-propyl]-phenyl}-propionic acid] | 133 to 135 | –
CC(=O)N(CCc1nc(-c2ccccc2)oc1C)Cc1ccc(C[C@@H](C(=O)O)n2cccc2)cc1 [Example 111, (S)-3-[4-({Acetyl-[2-(5-methyl-2-phenyl-oxazol-4-yl)-ethyl]-amino}-methyl)-phenyl]-2-pyrrol-1-yl-propionic acid] | 82 to 87 | –
CC(=O)c1cccn1[C@@H](Cc1ccc(OCCc2nc(-c3ccccc3)oc2C)cc1)C(=O)O [drawing 230] | – | MKNRCV1 % BRL @ 25 μM [1]: 60 % BRL; EC50 [1]: 3600 nM; inhibition at 25 µM [2]: 20%; ADPDIFF % BRL @ 5 μM (3T3-L1 preadipocytes): 89 % BRL; Glucose Δ [3]: 12.4; % BRL (in vivo, beside Glucose Δ) [3]: −5.1 % BRL
Cc1oc(-c2ccccc2)nc1CCOc1ccc(C[C@@H](C(=O)O)n2cccc2C(=O)C(F)(F)F)cc1 [drawing 233] | – | MKNRCV1 % BRL @ 25 μM [1]: 75 % BRL; EC50 [1]: 1700 nM; inhibition at 25 µM [2]: -1%; ADPDIFF % BRL @ 5 μM (3T3-L1 preadipocytes): 105 % BRL; Glucose Δ [3]: −157.2; % BRL (in vivo, beside Glucose Δ) [3]: 113.3 % BRL
Cc1oc(-c2ccccc2)nc1CCOc1ccc(C[C@@H](C(=O)O)n2ccc(-c3ccccc3)c2)cc1 [drawing 241] | – | MKNRCV1 % BRL @ 25 μM [1]: 54 % BRL; EC50 [1]: 900 nM; inhibition at 25 µM [2]: 29%; ADPDIFF % BRL @ 5 μM (3T3-L1 preadipocytes): 125 % BRL; Glucose Δ [3]: −194.0; % BRL (in vivo, beside Glucose Δ) [3]: 83.3 % BRL
Cc1oc(-c2ccccc2)nc1CCOc1ccc(C[C@@H](C(=O)O)c2ccccc2)cc1 [drawing 252] | – | MKNRCV1 % BRL @ 25 μM [1]: 106 % BRL; EC50 [1]: 150 nM; inhibition at 25 µM [2]: -104%; ADPDIFF % BRL @ 5 μM (3T3-L1 preadipocytes): 95 % BRL; Glucose Δ [3]: −58.8; % BRL (in vivo, beside Glucose Δ) [3]: 17.8 % BRL
